# Key:
# [1] = system: mice anxiety-like behavior; assay: light/dark box test; format: in vivo; settings: n = 8
# Description: (§1) Male ICR mice (n = 317 in total) aged 5 weeks and weighing 32 ± 2 g were purchased from Shimizu Laboratory Supplies (Kyoto, Japan). For the social defeat stress test, we used 28 C57BL/6J mice (5 weeks old, Shimizu Laboratory Supplies) and 30 ICR mice (7–8 weeks old, Charles River Labs Japan, Yokohama, Kanagawa, Japan). Mice were maintained for at least 1 week prior to experiments. Animals were kept in groups in plastic cages. They had free access to food and water, and were kept in a 12-h light/dark cycle (08:00–20:00). Experiments were carried out between 10:00 and 18:00 in a quiet and air-conditioned experimental room, in which mice were habituated for at least 30 min before each experiment. Animal experiments were performed in accordance with the guidelines of the Physiological Society of Japan and were approved by the Committees on Animal Experiments at Kansai Medical University and the Kurashiki University of Science and the Arts. Ostruthin was initially dissolved in DMSO at higher concentration (100 mM) and then diluted in phosphate-buffered saline (PBS). The diluted solution was mixed vigorously for more than 10 min before the experiments, and an equal volume of DMSO was added to PBS as a control. PBS and ostruthin were administered intraperitoneally 30 min before mice behavioral tests (0.01 ml/g body weight). Each animal was used only once, except for the wheel running test, which was carried out immediately after elevated plus maze.
# The light/dark box consisted of two compartments with a total exterior size of 46 × 27 × 30 cm. One-third of the box was used as a dark compartment, which was covered with a black wall and lid, and the rest of the area was used as a light compartment. These compartments were connected via a small opening (7 × 7 cm), enabling transition between the two compartments. We placed a mouse in the center of the light area and measured the time spent in the light area and the number of transitions between the light and dark compartments for 5 minutes.
# [2] = system: depression-like behavior of mice; assay: tail suspension test; format: in vivo
# Description: as §1
# The tail suspension test was performed in accordance with a method reported previously. The mouse was hung on a hook using adhesive tape placed 2 cm from the extremity of its tail 50 cm above the table. The amount of time spent immobile was recorded for 5 min.
# [3] = i.p. 30 min before test, vs 0 mg/kg
smiles,measurement,setting,value
CC(C)=CCC/C(C)=C/Cc1cc2ccc(=O)oc2cc1O [ostruthin],time spent in the light box,"[1]; 20 mg/kg i.p., vs 5 mg/kg",decreased
same,number of transitions between the light and dark boxes,[1]; highest dose (20 mg/kg) i.p.,non-significantly decreased
same,number of transitions between the light and dark boxes,[1]; [3],increased
same,time spent in the light box,[1]; [3],significantly increased
same,time spent immobile,"[2]; amlodipine experiment: single compound vs PBS, ostruthin 5 mg/kg or amlodipine 10 mg/kg, n = 9 and 13",significantly decreased
same,time spent immobile,"[2]; i.p. 30 min before test, 5 min, n = 14, vs PBS",decreased
same,time spent immobile,[2]; ostruthin 5 mg/kg in the presence of amlodipine 10 mg/kg (co-administration),no effect
same,time spent immobile,"[2]; ostruthin given 30 min after pre-administration of amlodipine, vs secondary PBS, n = 8",ineffective

# Source: PMC6093650, “Antidepressive and anxiolytic effects of ostruthin, a TREK-1 channel activator” (PLoS ONE, 2018)
